In brackets after ≈: the same amount, converted by molar mass. Like-named read-outs stand apart in the source and are kept apart here.
Columns and labels:
M.smegmatis mc^2155 = assay: MIC99 determination, broth macrodilution with CFU plating; assay type: cell-based; settings: for inhibition of M.smegmatis growth: at (up to) 750 µg/ml; for MIC99 for M.smegmatis: 24 hours, 99% inhibition of growth
M.tuberculosis H37Rv = assay: MIC99 determination in broth culture with CFU plating; assay type: cell-based; settings: 7 days, 99% inhibition of growth; for MIC99: Mycobacterium tuberculosis, H37RV, 168 h
[1] = target: T1, M.tuberculosis thiamin phosphate synthase (MtTPS) (Mycobacterium tuberculosis, UniProt P9WG75)
[2] = target: T1, M.tuberculosis thiamin phosphate synthase (MtTPS); assay: biochemical; settings: for inhibition at 100 µg/mL: read-out: percent inhibition of MtTPS activity
Cc1ncsc1CCO = assay: purified protein, by the assay type; settings: pH 7.5; 37.0 °C

T1 sequence (P9WG75 whole entry, looked up): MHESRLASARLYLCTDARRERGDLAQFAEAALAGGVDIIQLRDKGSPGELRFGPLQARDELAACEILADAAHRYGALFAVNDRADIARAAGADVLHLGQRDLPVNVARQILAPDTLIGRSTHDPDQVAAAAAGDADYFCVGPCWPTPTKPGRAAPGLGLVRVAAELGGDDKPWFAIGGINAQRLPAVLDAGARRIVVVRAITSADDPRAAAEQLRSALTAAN

## Cc1cc(O)c(C(C)C)cc1N=Cc1cc([N+](=O)[O-])ccc1O [Compound 9, 4-{[(2-hydroxy-5-nitrophenyl)methylidene]amino}-5-methyl-2-(propan-2-yl)phenol]
M.smegmatis mc^2155
  inhibition of M.smegmatis growth: 32% inhibition at 750 µg/ml
M.tuberculosis H37Rv
  MIC99: 6 µg/mL (≈ 19.1 µM)
[1]
  mode of inhibition of MtTPS: competing with HMP-PP
[2]
  IC50: 108 µM
  inhibition at 100 µg/mL: > 20%

## O=C(Nc1cccc([N+](=O)[O-])c1)c1cc2ccccc2cc1O [Compound 10, Naphtazol B]
M.smegmatis mc^2155
  inhibition of M.smegmatis growth: No inhibition
M.tuberculosis H37Rv
  MIC99 for M.tuberculosis: 750 µg/mL

## M.tuberculosis thiamin phosphate synthase (MtTPS) (Mycobacterium tuberculosis H37Rv)
Cc1ncsc1CCO
  Km: 14 µM

## CN1[C@@H]2CC[C@H]1CC(OC(c1ccccc1)c1ccccc1)C2.CS(=O)(=O)O (stereo partly drawn) [Compound 11, 3-benzhydryloxy-8-methyl-8-azab icyclo [3.2.1]octane;methanesulfonic acid]
M.smegmatis mc^2155
  MIC99 for M.smegmatis: 125 µg/mL
M.tuberculosis H37Rv
  MIC99 for M.tuberculosis: 250 µg/mL

## O=C(Nc1cccc([N+](=O)[O-])c1)c1ccc2ccccc2c1O [Compound 12, 1-hydroxy-(3-nitrophenyl) naphthalene-2-carboxamide]
M.smegmatis mc^2155
  inhibition of M.smegmatis growth: 45% inhibition at 750 µg/ml
[1]
  IC50: 100 µ/ml
  percent inhibition of MtTPS activity: greater than 20%

## c1ccc(CSc2nnc3c4ccccc4c4ccccc4c3n2)cc1 [Compound 33, 3-benzylsulfanyl phenanthro[9,10-e][1,2,4]triazine]
M.smegmatis mc^2155
  MIC99 for M.smegmatis: 150 µg/mL
M.tuberculosis H37Rv
  MIC99 for M.tuberculosis: 162.5 µg/mL
[1]
  IC50: 100 µ/ml
  percent inhibition of MtTPS activity: greater than 20%

## CCN(CC)c1nc(Cl)nc(Nc2ccc3cc(-c4ccccc4)c(=O)oc3c2)n1 [Compound 35, Coumarin, 7-[[4-chloro-6-(diethylamino)-s-triazin-2-yl]amino]-3-phenyl-]
M.smegmatis mc^2155
  inhibition of M.smegmatis growth: No inhibition
M.tuberculosis H37Rv
  MIC99: 125 µg/mL (≈ 296 µM)
[2]
  IC50: > 237 µM
  inhibition at 100 µg/mL: > 20%

Reference: PMC3144219, “Identification of Inhibitors against Mycobacterium tuberculosis Thiamin Phosphate Synthase, an Important Target for the Development of Anti-TB Drugs” (PLoS ONE, 2011)
